Measurements from PubChem BioAssay (NCI).
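These data come from cells grown in 96-well plates and exposed to compound for 48 hours at five concentrations. GI50: concentration for 50% inhibition of growth. The concentration for full growth arrest is given as TGI.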

How the values were obtained:
Experiment in all cases: inhibition of tumour cell growth, NCI panel, 48 h; in the data active means GI50 below about 0.43 µM; inactive means the rest
SK-MEL-2 melanoma = system: SK-MEL-2 melanoma
LOX IMVI melanoma = system: LOX IMVI melanoma
MALME-3M melanoma = system: MALME-3M melanoma
MOLT-4 leukemia = system: MOLT-4 leukemia
UACC-257 melanoma = system: UACC-257 melanoma
HOP-62 NSCLC = system: HOP-62 NSCLC
T-47D breast = system: T-47D breast
OVCAR-8 ovarian = system: OVCAR-8 ovarian
MDA-MB-231 breast = system: MDA-MB-231 breast
HCT-116 colon = system: HCT-116 colon
OVCAR-4 ovarian = system: OVCAR-4 ovarian
SNB-19 CNS = system: SNB-19 CNS
EKVX NSCLC = system: EKVX NSCLC
SW-620 colon = system: SW-620 colon
SK-OV-3 ovarian = system: SK-OV-3 ovarian
CAKI-1 renal = system: CAKI-1 renal
786-0 renal = system: 786-0 renal
M14 melanoma = system: M14 melanoma
NCI-H226 lung = system: NCI-H226 lung
RPMI-8226 leukemia = system: RPMI-8226 leukemia
HCT-15 colon = system: HCT-15 colon
K-562 leukemia = system: K-562 leukemia
A549 NSCLC = system: A549 NSCLC
NCI-H23 lung = system: NCI-H23 lung
UACC-62 melanoma = system: UACC-62 melanoma
A498 renal = system: A498 renal
SK-MEL-28 melanoma = system: SK-MEL-28 melanoma
MDA-N = system: MDA-N
UO-31 renal = system: UO-31 renal
U251 CNS = system: U251 CNS
MCF7 breast = system: MCF7 breast
ACHN renal = system: ACHN renal
SF-295 CNS = system: SF-295 CNS
OVCAR-3 ovarian = system: OVCAR-3 ovarian
MDA-MB-435 = system: MDA-MB-435
SF-539 CNS = system: SF-539 CNS
PC-3 prostate = system: PC-3 prostate
SK-MEL-5 melanoma = system: SK-MEL-5 melanoma
HOP-92 NSCLC = system: HOP-92 NSCLC
TK-10 renal = system: TK-10 renal
SN12C renal = system: SN12C renal
RXF 393 renal = system: RXF 393 renal
DU-145 prostate = system: DU-145 prostate
COLO 205 colon = system: COLO 205 colon
CCRF-CEM leukemia = system: CCRF-CEM leukemia
SNB-75 CNS = system: SNB-75 CNS
NCI-H522 lung = system: NCI-H522 lung
KM12 colon = system: KM12 colon
HCC-2998 colon = system: HCC-2998 colon
IGROV1 ovarian = system: IGROV1 ovarian
NCI/ADR-RES ovarian = system: NCI/ADR-RES ovarian
SF-268 CNS = system: SF-268 CNS
NCI-H460 lung = system: NCI-H460 lung
SR leukemia = system: SR leukemia
BT-549 breast = system: BT-549 breast
HL-60(TB) leukemia = system: HL-60(TB) leukemia
HS 578T breast = system: HS 578T breast
OVCAR-5 ovarian = system: OVCAR-5 ovarian
HT29 colon = system: HT29 colon

CN(C)C(=O)N1N[C@H](c2ccccc2)[C@@H]1c1ccccc1
> 100 µM: TGI (SK-MEL-2 melanoma) | TGI (LOX IMVI melanoma) | TGI (MALME-3M melanoma) | TGI (MOLT-4 leukemia) | TGI (UACC-257 melanoma) | TGI (HOP-62 NSCLC) | TGI (T-47D breast) | TGI (OVCAR-8 ovarian) | TGI (MDA-MB-231 breast) | TGI (HCT-116 colon) | TGI (OVCAR-4 ovarian) | TGI (SNB-19 CNS) | TGI (EKVX NSCLC) | TGI (SW-620 colon) | TGI (SK-OV-3 ovarian) | TGI (CAKI-1 renal) | TGI (786-0 renal) | TGI (M14 melanoma) | TGI (NCI-H226 lung) | TGI (RPMI-8226 leukemia) | TGI (HCT-15 colon) | TGI (K-562 leukemia) | TGI (A549 NSCLC) | TGI (NCI-H23 lung) | TGI (UACC-62 melanoma) | TGI (A498 renal) | TGI (SK-MEL-28 melanoma) | TGI (MDA-N) | TGI (UO-31 renal) | TGI (U251 CNS) | TGI (MCF7 breast) | TGI (ACHN renal) | TGI (SF-295 CNS) | TGI (OVCAR-3 ovarian) | TGI (MDA-MB-435) | TGI (SF-539 CNS) | TGI (PC-3 prostate) | TGI (SK-MEL-5 melanoma) | TGI (HOP-92 NSCLC) | TGI (TK-10 renal) | TGI (SN12C renal) | TGI (RXF 393 renal) | TGI (DU-145 prostate) | TGI (COLO 205 colon) | TGI (CCRF-CEM leukemia) | TGI (SNB-75 CNS) | TGI (NCI-H522 lung) | TGI (KM12 colon) | TGI (HCC-2998 colon) | TGI (IGROV1 ovarian) | TGI (NCI/ADR-RES ovarian)

Oc1c(C(c2ccc(F)cc2)N2CCCCC2)ccc2cncnc12 (configuration not stated)
10.2 µM: TGI (NCI-H522 lung)
> 51.3 µM: TGI (A549 NSCLC)
21.7 µM: TGI (IGROV1 ovarian)
14.1 µM: TGI (NCI-H460 lung)
3.63 µM: TGI (SK-MEL-5 melanoma)
3.95 µM: TGI (SNB-75 CNS)
inactive: GI50 (SK-MEL-2 melanoma) 0.527 µM | GI50 (LOX IMVI melanoma) 0.432 µM | GI50 (SF-268 CNS) 0.484 µM | GI50 (MALME-3M melanoma) 1.17 µM | GI50 (MOLT-4 leukemia) 1.38 µM | GI50 (UACC-257 melanoma) 0.711 µM | GI50 (HOP-62 NSCLC) 0.513 µM | GI50 (T-47D breast) 0.612 µM | GI50 (OVCAR-8 ovarian) 0.453 µM | GI50 (MDA-MB-231 breast) 1.5 µM | GI50 (OVCAR-4 ovarian) 1.77 µM | GI50 (EKVX NSCLC) 0.672 µM | GI50 (SR leukemia) 0.675 µM | GI50 (SW-620 colon) 0.478 µM | GI50 (SK-OV-3 ovarian) 0.571 µM | GI50 (BT-549 breast) 0.576 µM | GI50 (CAKI-1 renal) 0.899 µM | GI50 (786-0 renal) 1.69 µM | GI50 (HL-60(TB) leukemia) 1.14 µM | GI50 (M14 melanoma) 0.746 µM | GI50 (NCI-H226 lung) 1.19 µM | GI50 (RPMI-8226 leukemia) 0.555 µM | GI50 (HCT-15 colon) 2.11 µM | GI50 (K-562 leukemia) 0.503 µM | GI50 (HS 578T breast) 0.432 µM | GI50 (UACC-62 melanoma) 0.476 µM | GI50 (A498 renal) 1.46 µM | GI50 (SK-MEL-28 melanoma) 0.71 µM | GI50 (UO-31 renal) 0.834 µM | GI50 (ACHN renal) 1.24 µM | GI50 (OVCAR-3 ovarian) 0.783 µM | GI50 (SK-MEL-5 melanoma) 0.529 µM | GI50 (TK-10 renal) 1.35 µM | GI50 (OVCAR-5 ovarian) 1.28 µM | GI50 (DU-145 prostate) 0.784 µM | GI50 (COLO 205 colon) 3.3 µM | GI50 (CCRF-CEM leukemia) 0.477 µM | GI50 (KM12 colon) 1.07 µM | GI50 (HT29 colon) 0.747 µM | GI50 (HCC-2998 colon) 2.09 µM | GI50 (IGROV1 ovarian) 0.532 µM | GI50 (NCI/ADR-RES ovarian) 2.58 µM
5.86 µM: TGI (SK-MEL-2 melanoma)
active: GI50 (HCT-116 colon) 0.364 µM | GI50 (SNB-19 CNS) 0.396 µM | GI50 (NCI-H460 lung) 0.351 µM | GI50 (A549 NSCLC) 0.377 µM | GI50 (NCI-H23 lung) 0.414 µM | GI50 (U251 CNS) 0.325 µM | GI50 (MCF7 breast) 0.344 µM | GI50 (SF-295 CNS) 0.413 µM | GI50 (MDA-MB-435) 0.412 µM | GI50 (SF-539 CNS) 0.388 µM | GI50 (PC-3 prostate) 0.426 µM | GI50 (HOP-92 NSCLC) 0.313 µM | GI50 (SN12C renal) 0.396 µM | GI50 (RXF 393 renal) 0.416 µM | GI50 (SNB-75 CNS) 0.246 µM | GI50 (NCI-H522 lung) 0.353 µM
38.8 µM: TGI (SK-OV-3 ovarian)
19.4 µM: TGI (NCI-H226 lung)
> 75.2 µM: TGI (M14 melanoma)
5.11 µM: TGI (UACC-62 melanoma)
> 39.4 µM: TGI (MCF7 breast)
47.9 µM: TGI (MALME-3M melanoma)
12.2 µM: TGI (UACC-257 melanoma) | TGI (RXF 393 renal)
6.22 µM: TGI (HL-60(TB) leukemia)
45.9 µM: TGI (EKVX NSCLC)
13.4 µM: TGI (CAKI-1 renal)
97 µM: TGI (T-47D breast)
9.43 µM: TGI (A498 renal)
2.96 µM: TGI (HOP-92 NSCLC)
> 81.2 µM: TGI (SF-539 CNS)
> 100 µM: TGI (LOX IMVI melanoma) | TGI (SF-268 CNS) | TGI (MOLT-4 leukemia) | TGI (HOP-62 NSCLC) | TGI (OVCAR-8 ovarian) | TGI (MDA-MB-231 breast) | TGI (HCT-116 colon) | TGI (OVCAR-4 ovarian) | TGI (SNB-19 CNS) | TGI (SR leukemia) | TGI (SW-620 colon) | TGI (BT-549 breast) | TGI (786-0 renal) | TGI (RPMI-8226 leukemia) | TGI (HCT-15 colon) | TGI (K-562 leukemia) | TGI (NCI-H23 lung) | TGI (HS 578T breast) | TGI (SK-MEL-28 melanoma) | TGI (U251 CNS) | TGI (ACHN renal) | TGI (SF-295 CNS) | TGI (OVCAR-3 ovarian) | TGI (MDA-MB-435) | TGI (PC-3 prostate) | TGI (TK-10 renal) | TGI (OVCAR-5 ovarian) | TGI (SN12C renal) | TGI (DU-145 prostate) | TGI (COLO 205 colon) | TGI (CCRF-CEM leukemia) | TGI (KM12 colon) | TGI (HT29 colon) | TGI (HCC-2998 colon) | TGI (NCI/ADR-RES ovarian)
6.62 µM: TGI (UO-31 renal)
